# Assay results as given in patent US20200155566A1, “THERAPEUTIC COMBINATION OF A THIRD GENERATION EGFR TYROSINE KINASE INHIBITOR AND A CYCLIN D KINASE INHIBITOR” (Novartis AG, priority 2017, published 2020).
# How the values were obtained:
# EGFR-mutant NSCLC = details: 100 mg daily versus 150 mg daily, previous study; cited from earlier work
# [1] = test system: NCI-H1975 tumors (EGFR L858R, T790M); assay: In vivo efficacy study, NCI-H1975 xenograft tumor volume; parameters: species or system mouse; details: Compound A 10 or 30 mg/kg p.o. qd, Compound B 80 mg/kg free base p.o. qd
# Protocol: The tumor cells were cultured in tissue culture flasks in a humidified incubator at 37° C., in an atmosphere of 5% CO2 and 95% air.
# [2] = test system: advanced non-small cell lung cancer (NSCLC) harboring T790M; details: patients with advanced NSCLC harboring T790M; cited from earlier work
# [3] = test system: phospho-EGFR (EGFR Y1068); assay: Western blot of phospho-EGFR after 72 hours of treatment; type: cell-based; details: PC-14, NCI-H1975, HCC827, HCC4006, immunoblot
# Protocol: NCI-H1975 (having mutations L858R, T790M), PC-14 (having mutations ex 19 del or exon 19 deletion), HCC827 (having mutation exl9del) and HCC4006 (having mutation exl9del) cells were cultured in RPMI-1640 growth medium (ATCC, catalog number 20-2001), supplemented with 10% fetal bovine serum (GIBCO, catalog number F4135) at 37° C. in a humidified 5% CO2 incubator. For the mechanistic studies, cells were seeded into tissue culture treated 6-well plates (Corning 3506) at a densities of 400k, 400k, 100K and 50k cells per well for HCC827, NCI-H1975, HCC4006 and PC-9 (having mutation exon 19 deletion) respectively, and allowed to attach overnight. […] After 72 hours of treatment, cells were lysed in 100 μl per well RIPA buffer (Sigma R0278) containing protease inhibitor cocktail (Sigma P8340), phosphatase inhibitor cocktail 2(Sigma P5726) and phosphatase inhibitor cocktail 3 (Sigma P0044). Cells were lysed on ice for 10 minutes, with scraping using a Cell Lifter (Corning 3008). Lysates were then micro-centrifuged at 14000rpm in an Eppendorf 5417R micro-centrifuge at 4° C.
# [4] = test system: EGFR mutant (L858R, exl9del and T790M) cancer models; details: cited from earlier work
# [5] = test system: EGFR mutant NSCLC cell lines (PC9, HCC827, HCC4006, MGH707); assay: Long-term viability study (confluence by incucyte zoom, four weeks); type: cell-based
# Protocol: PC9 (3,000/well), HCC827 (10,000/well), HCC4006 (5000/well), and MGH707 (5000/well) cells were plated into 96-well plates and the following day treated with EGF816 (300nM) either alone or in combination with LEE011 (1000 nM) for four weeks. Drug was refreshed twice per week. Cell confluence was used as a surrogate for cell number and was measured by an incucyte zoom (Essen Biosciences) at the initiation of treatment and then twice (2x) per week thereafter.
# [6] = test system: Epidermal Growth Factor Receptor (EGFR); details: L858R, exl9del, T790M versus WT; cited from earlier work
# phospho-Rb (Rb S807/811) = assay: Western blot of phospho-Rb after 72 hours of treatment; type: cell-based; details: PC-14, NCI-H1975, HCC827, HCC4006, immunoblot
# Protocol: Several EGFR mutant NSCLC cell lines were treated for 72 hours with the EGF816 and LEE011 combination at different concentrations as follows. NCI-H1975 (having mutations L858R, T790M), PC-14 (having mutations ex 19 del or exon 19 deletion), HCC827 (having mutation exl9del) and HCC4006 (having mutation exl9del) cells were cultured in RPMI-1640 growth medium (ATCC, catalog number 20-2001), supplemented with 10% fetal bovine serum (GIBCO, catalog number F4135) at 37° C. in a humidified 5% CO2 incubator. For the mechanistic studies, cells were seeded into tissue culture treated 6-well plates (Corning 3506) at a densities of 400k, 400k, 100K and 50k cells per well for HCC827, NCI-H1975, HCC4006 and PC-9 (having mutation exon 19 deletion) respectively, and allowed to attach overnight. The cells were then exposed to a 3×3 matrix combination treatment of EGF816 and LEE011, at concentrations of 0, 0.12, 0.333 μM EGF816 vs. 0, 0.312, 2.5 μM LEE011. […]
# Lysate' total protein content was determined by BCA assay (Pierce 23227), following the manufacturer's instructions, and samples were prepared for a western blot using Invitrogen LDS Sample Buffer (NP0007)) containing 200 mM DTT, boiled at 95° C. for 10 minutes, micro-centrifuged and 20 μg total protein loaded per well. […]
# CYP3A4/5 = details: cited from earlier work
# [7] = single agent ribociclib, 3 weeks on/1 week off; cited from earlier work
Compound,rates of rash and diarrhoea (EGFR-mutant NSCLC),tumor volume changes over time [1],antitumor activity in patients [2],EGFR phosphorylation (EGFR Y1068) [3],"tolerability, body weight ([4]; efficacious doses, xenograft models)",anti-tumor efficacy in xenograft models ([4]; several xenograft models),regrowth of cells (confluence as surrogate for cell number) ([5]; EGF816 300nM alone or with LEE011 1000 nM),"apoptosis and cell cycle arrest ([5]; EGF816 300nM, PC9, HCC827, HCC4006, MGH707)",selectivity for mutant EGFR over wild type EGFR [6],Rb phosphorylation (Rb S807/811) (phospho-Rb (Rb S807/811)),CYP3A4/5 inhibition (CYP3A4/5),MTD [7] [mg qd]
"Cc1cc(C(=O)Nc2nc3cccc(Cl)c3n2[C@@H]2CCCCN(C(=O)/C=C/CN(C)C)C2)ccn1 [EGF816, (R,E)-N-(7-chloro-1-(1-(4-(dimethylamino)but-2-enoyl)azepan-3-yl)-1H-benzo[d]imidazol-2-yl)-2-methylisonicotinamide]",lower rates of rash and diarrhoea were observed at 100 mg daily,"significant tumor regressions, which increased at higher doses",durable antitumor activity,inhibited in a dose dependent manner across all cell lines,well tolerated with no body weight loss observed at efficacious doses,Dose-dependent anti-tumor efficacy,begin to slowly regrow,varying degrees of apoptosis and cell cycle arrest,"selectively inhibits activating and acquired resistance mutants (L858R, exl9del and T790M), while sparing wild type (WT) EGFR",,,
"CN(C)C(=O)c1cc2cnc(Nc3ccc(N4CCNCC4)cn3)nc2n1C1CCCC1 [LEE011, 7-cyclopentyl-2-(5-piperazin-1-yl-pyridin-2-ylamino)-7H-pyrrolo[2,3-d]pyrimidine-6-carboxylic acid dimethylamide]",,no single agent activity,,,,,,,,inhibited by LEE011 single agent in 3 out of 4 cell lines,inhibitor of CYP3A4/5,900
